Tested on: 282377-053-R-J1-PDC complex spheroid viability
Assay: Anticancer human tumor 282377-053-R-J1-PDC patient-derived colon adenocarcinoma cell line growth inhibition [POLQ]
Conditions: for IC50: curve of first compound; for viability, T/C: stronger effect = lower value
Summary of the method: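 PDC + HUVEC + MSC complex spheroids; POLQ inhibitors ± partner drugs; top conc. at/near clinical Cmax, else 10 microM (SN-38 1 microM), half-log dilutions; 37 degrees C, 5% CO2.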

[1] = second compound 0.0316 µM, first compound 0.0316 µM
[2] = second compound 0.0316 µM, first compound 0.1 µM
[3] = second compound 0.0316 µM, first compound 0.316 µM
[4] = second compound 0.0316 µM, first compound 1 µM
[5] = second compound 0.0316 µM, first compound 3.16 µM
[6] = second compound 0.0316 µM, first compound 10 µM
[7] = second compound 0.1 µM, first compound 0.0316 µM
[8] = second compound 0.1 µM, first compound 0.1 µM
[9] = second compound 0.1 µM, first compound 0.316 µM
[10] = second compound 0.1 µM, first compound 1 µM
[11] = second compound 0.1 µM, first compound 3.16 µM
[12] = second compound 0.1 µM, first compound 10 µM
[13] = second compound 0.316 µM, first compound 0.0316 µM
[14] = second compound 0.316 µM, first compound 0.1 µM
[15] = second compound 0.316 µM, first compound 0.316 µM
[16] = second compound 0.316 µM, first compound 1 µM
[17] = second compound 0.316 µM, first compound 3.16 µM
[18] = second compound 0.316 µM, first compound 10 µM
[19] = second compound 1 µM, first compound 0.0316 µM
[20] = second compound 1 µM, first compound 0.1 µM
[21] = second compound 1 µM, first compound 0.316 µM
[22] = second compound 1 µM, first compound 1 µM
[23] = second compound 1 µM, first compound 3.16 µM
[24] = second compound 1 µM, first compound 10 µM
[25] = second compound 3.16 µM, first compound 0.0316 µM
[26] = second compound 3.16 µM, first compound 0.1 µM
[27] = second compound 3.16 µM, first compound 0.316 µM
[28] = second compound 3.16 µM, first compound 1 µM
[29] = second compound 3.16 µM, first compound 3.16 µM
[30] = second compound 3.16 µM, first compound 10 µM
[31] = second compound 10 µM, first compound 0.0316 µM
[32] = second compound 10 µM, first compound 0.1 µM
[33] = second compound 10 µM, first compound 0.316 µM
[34] = second compound 10 µM, first compound 1 µM
[35] = second compound 10 µM, first compound 3.16 µM
[36] = second compound 10 µM, first compound 10 µM
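Also: spheroids exposed to compounds for seven days.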
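For viability, T/C in this document: 100% = DMSO vehicle control viability.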

SMILES: C#Cc1c(F)ccc2cc(O)cc(-c3ncc4c(N5CC6CCC(C5)N6)nc(OCC56CCCN5CC(F)C6)nc4c3F)c12 (stereo unspecified) + Cc1cccc(N(C)C(=O)C2C(O)CCN2c2nc(C)cc(C(F)(F)F)c2C#N)c1
- IC50 (second compound 0.0316 µM): > 10 µM
- IC50 (second compound 0.1 µM): > 10 µM
- IC50 (second compound 0.316 µM): > 10 µM
- IC50 (second compound 1 µM): > 10 µM
- IC50 (second compound 3.16 µM): > 10 µM
- IC50 (second compound 10 µM): > 10 µM
- viability, T/C [1]: 105%
- viability, T/C [2]: 84%
- viability, T/C [3]: 77.4%
- viability, T/C [4]: 89.2%
- viability, T/C [5]: 68.6%
- viability, T/C [6]: 86.9%
- viability, T/C [7]: 84.1%
- viability, T/C [8]: 82.4%
- viability, T/C [9]: 112%
- viability, T/C [10]: 84.8%
- viability, T/C [11]: 106%
- viability, T/C [12]: 81%
- viability, T/C [13]: 91.9%
- viability, T/C [14]: 79.2%
- viability, T/C [15]: 105%
- viability, T/C [16]: 93.6%
- viability, T/C [17]: 85.2%
- viability, T/C [18]: 66.2%
- viability, T/C [19]: 104%
- viability, T/C [20]: 80.4%
- viability, T/C [21]: 86%
- viability, T/C [22]: 81.3%
- viability, T/C [23]: 86.9%
- viability, T/C [24]: 70.4%
- viability, T/C [25]: 91.9%
- viability, T/C [26]: 97.6%
- viability, T/C [27]: 73.3%
- viability, T/C [28]: 75%
- viability, T/C [29]: 77.9%
- viability, T/C [30]: 74.3%
- viability, T/C [31]: 81.7%
- viability, T/C [32]: 82.4%
- viability, T/C [33]: 82.3%
- viability, T/C [34]: 68.5%
- viability, T/C [35]: 70.6%
- viability, T/C [36]: 81%

SMILES: CC1COCCN1c1cc(C2(O)CC3CCC(C2)O3)c2cnn(-c3ccn[nH]3)c2n1 (stereo unspecified) + Cc1cccc(N(C)C(=O)C2C(O)CCN2c2nc(C)cc(C(F)(F)F)c2C#N)c1
- IC50 (second compound 0.0316 µM): 0.524 µM
- IC50 (second compound 0.1 µM): 0.3 µM
- IC50 (second compound 0.316 µM): 0.242 µM
- IC50 (second compound 1 µM): 0.489 µM
- IC50 (second compound 3.16 µM): 0.23 µM
- IC50 (second compound 10 µM): 0.302 µM
- viability, T/C [1]: 106%
- viability, T/C [2]: 74.9%
- viability, T/C [3]: 67.9%
- viability, T/C [4]: 33%
- viability, T/C [5]: 25.5%
- viability, T/C [6]: 16.7%
- viability, T/C [7]: 83.8%
- viability, T/C [8]: 83.6%
- viability, T/C [9]: 48.4%
- viability, T/C [10]: 28.1%
- viability, T/C [11]: 30.4%
- viability, T/C [12]: 21.9%
- viability, T/C [13]: 78.9%
- viability, T/C [14]: 68.3%
- viability, T/C [15]: 44.6%
- viability, T/C [16]: 27.3%
- viability, T/C [17]: 29.2%
- viability, T/C [18]: 19.8%
- viability, T/C [19]: 80.7%
- viability, T/C [20]: 79.2%
- viability, T/C [21]: 54%
- viability, T/C [22]: 37.2%
- viability, T/C [23]: 27%
- viability, T/C [24]: 13.9%
- viability, T/C [25]: 78.7%
- viability, T/C [26]: 55.2%
- viability, T/C [27]: 49%
- viability, T/C [28]: 30%
- viability, T/C [29]: 31.2%
- viability, T/C [30]: 13.6%
- viability, T/C [31]: 76%
- viability, T/C [32]: 66.1%
- viability, T/C [33]: 49.2%
- viability, T/C [34]: 30.9%
- viability, T/C [35]: 31.6%
- viability, T/C [36]: 14.4%

SMILES: O=C(Nc1ccc(O)c(NS(=O)(=O)c2ccc(F)cc2)c1)c1ccc(-c2ccccc2)cc1 + Cc1cccc(N(C)C(=O)C2C(O)CCN2c2nc(C)cc(C(F)(F)F)c2C#N)c1
- IC50 (second compound 0.0316 µM): > 10 µM
- IC50 (second compound 0.1 µM): > 10 µM
- IC50 (second compound 0.316 µM): > 10 µM
- IC50 (second compound 1 µM): > 10 µM
- IC50 (second compound 3.16 µM): > 10 µM
- IC50 (second compound 10 µM): > 10 µM
- viability, T/C [1]: 122%
- viability, T/C [2]: 119%
- viability, T/C [3]: 98.4%
- viability, T/C [4]: 102%
- viability, T/C [5]: 107%
- viability, T/C [6]: 116%
- viability, T/C [7]: 106%
- viability, T/C [8]: 117%
- viability, T/C [9]: 99.5%
- viability, T/C [10]: 108%
- viability, T/C [11]: 124%
- viability, T/C [12]: 118%
- viability, T/C [13]: 104%
- viability, T/C [14]: 107%
- viability, T/C [15]: 106%
- viability, T/C [16]: 103%
- viability, T/C [17]: 116%
- viability, T/C [18]: 120%
- viability, T/C [19]: 106%
- viability, T/C [20]: 110%
- viability, T/C [21]: 99.8%
- viability, T/C [22]: 109%
- viability, T/C [23]: 117%
- viability, T/C [24]: 119%
- viability, T/C [25]: 112%
- viability, T/C [26]: 118%
- viability, T/C [27]: 104%
- viability, T/C [28]: 108%
- viability, T/C [29]: 126%
- viability, T/C [30]: 115%
- viability, T/C [31]: 106%
- viability, T/C [32]: 105%
- viability, T/C [33]: 99.7%
- viability, T/C [34]: 97%
- viability, T/C [35]: 106%
- viability, T/C [36]: 115%

— PubChem BioAssay AID1963852 (Molecular Pharmacology Branch, DTP, NCI, 2024)
